Source: patent US11702422B2, “Imidazopyridazines as modulators of IL-17” (Janssen Pharmaceutica NV, priority 2020, dated 2023)
pIC50: −log10 of the molar value.

Tests used:
[1] = system: IL-17A-induced G-CSF production in human normal keratinocyte (NHK); experiment: NHK Assay: IL-17A-induced G-CSF production in human normal keratinocytes; type: cell-based; conditions: adult normal human keratinocytes, IL-17A 5 ng/mL, 24 h, simple average if tested more than once
In short: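 Adult normal human keratinocytes were seeded at 3000-4000 cells/well. Recombinant human IL-17A was pre-incubated 1 h at rt with titrated compound, then added to cells (final 5 ng/mL IL-17A, 0.2% DMSO, 5% FBS) for 24 h at 37° C. Supernatant G-CSF was measured by HTRF against a standard curve to give IC50.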

[2] = molecular target: IL-17A(FLAG-Tagged): IL-17RA(His-Tagged) (Homo sapiens, UniProt Q16552, K93Q); experiment: IL-17A(FLAG-Tagged): IL-17RA(His-Tagged) Binding Disruption Eu-HTRF Assay; conditions: IL-17A/IL-17RA binding disruption, simple average if tested more than once
Chain of UniProt Q16552 (Q16552 with tags, fused parts or gaps K93Q): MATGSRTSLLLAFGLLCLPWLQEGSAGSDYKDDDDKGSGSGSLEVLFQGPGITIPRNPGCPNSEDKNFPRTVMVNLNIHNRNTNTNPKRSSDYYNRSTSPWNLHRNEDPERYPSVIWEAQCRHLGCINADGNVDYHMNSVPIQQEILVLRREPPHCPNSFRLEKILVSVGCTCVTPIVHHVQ
In short: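 IC50 comes from a one-site competition fit of the HTRF 665/620 nm ratio. Compound dilutions (2-fold, 22 points) were held 1 h rt with FLAG-tagged IL-17A dimer, then His-tagged IL-17RA plus Eu-cryptate anti-FLAG and D2 anti-His antibodies were added for 2 h rt.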

pIC50 [2]	SMILES	pIC50 [1]	pIC50 ([1]; Homo sapiens, Keratinocyte)
5.72	CC(C)n1nccc1C(=O)N[C@H](c1cn2ncc(C(NC(=O)CCC(F)(F)F)C3CC3)cc2n1)C1CCC(F)(F)CC1 (single isomer, unassigned) [Example 15, N—((S)-(7-((S*)-Cyclopropyl(4,4,4-trifluorobutanamido)methyl)imidazo[1,2-b]pyridazin-2-yl)(4,4-difluorocyclohexyl)methyl)-1-isopropyl-1H-pyrazole-5-carboxamide]	5.32	–
5.38	O=C(CCC(F)(F)F)N[C@@H](c1cnn2cc([C@@H](NC(=O)[C@@H]3C[C@H]3CF)C3CCC(F)(F)CC3)nc2c1)C1CC1 (relative stereo) [Example 362, (1R*,2R*)—N—((S)-(7-((R*)-Cyclopropyl(4,4,4-trifluorobutanamido)methyl)imidazo[1,2-b]pyridazin-2-yl)(4,4-difluorocyclohexyl)methyl)-2-(fluoromethyl)cyclopropane-1-carboxamide]	–	< 4.70
6.52	O=C(CCC(F)(F)F)N[C@@H](c1cnn2cc([C@@H](NC(=O)c3cc(OCC(F)F)ccn3)C3CCC(F)(F)CC3)nc2c1)C1CC1 [Example 197, N—((S)-(7-((R)-Cyclopropyl(4,4,4-trifluorobutanamido)methyl)imidazo[1,2-b]pyridazin-2-yl)(4,4-difluorocyclohexyl)methyl)-4-(2,2-difluoroethoxy)picolinamide]	–	5.77
6.04	O=C(CCC(F)(F)F)N[C@@H](c1cnn2cc([C@@H](NC(=O)c3cnn(CCN4CC(F)(F)C4)n3)C3CCC(F)(F)CC3)nc2c1)C1CC1 [Example 485, N—[(S)-[7-[(R)-Cyclopropyl-(4,4,4-trifluorobutanamido)methyl]imidazo[1,2-b]pyridazin-2-yl]-(4,4-difluorocyclohexyl)methyl]-2-[2-(3,3-difluoroazetidin-1-yl)ethyl]triazole-4-carboxamide]	–	6.51
7.10	O=C(CCC(F)(F)F)N[C@@H](c1cnn2cc([C@@H](NC(=O)c3nocc3OCCF)C3CCC(F)(F)CC3)nc2c1)C1CC1 [Example 376, N—((S)-(7-((R)-Cyclopropyl(4,4,4-trifluorobutanamido)methyl)imidazo[1,2-b]pyridazin-2-yl)(4,4-difluorocyclohexyl)methyl)-4-(2-fluoroethoxy)isoxazole-3-carboxamide]	–	6.55
6.92	O=C(CCC(F)(F)F)N[C@@H](c1cnn2cc([C@@H](NC(=O)c3cnn(CCOC(F)F)n3)C3CCC(F)(F)CC3)nc2c1)C1CC1 [Example 35, N—((S)-(7-((R)-Cyclopropyl(4,4,4-trifluorobutanamido)methyl)imidazo[1,2-b]pyridazin-2-yl)(4,4-difluorocyclohexyl)methyl)-2-(2-(difluoromethoxy)ethyl)-2H-1,2,3-triazole-4-carboxamide]	–	6.70
6.72	O=C(CCC(F)(F)F)N[C@@H](c1cnn2cc([C@@H](NC(=O)c3ncnn3CC(F)(F)F)C3CCC(F)(F)CC3)nc2c1)C1CC1 [Example 61, N—((S)-(7-((R)-Cyclopropyl(4,4,4-trifluorobutanamido)methyl)imidazo[1,2-b]pyridazin-2-yl)(4,4-difluorocyclohexyl)methyl)-1-(2,2,2-trifluoroethyl)-1H-1,2,4-triazole-5-carboxamide]	–	5.92

Continued, compound first:

SMILES	pIC50 [2]	pIC50 [1]	pIC50 ([1]; Homo sapiens, Keratinocyte)
CC(C)n1nccc1C(=O)N[C@H](c1cn2ncc([C@H](NC(=O)C34CC(F)(C3)C4)C3CC3)cc2n1)C1CCC(F)(F)CC1 [Example 268, N—((S)-(7-((R)-Cyclopropyl(3-fluorobicyclo[1.1.1]pentane-1-carboxamido)methyl)imidazo[1,2-b]pyridazin-2-yl)(4,4-difluorocyclohexyl)methyl)-1-isopropyl-1H-pyrazole-5-carboxamide]	6.12	–	5.52
O=C(CC1CC(F)(F)C1)N[C@@H](c1cnn2cc([C@@H](NC(=O)c3nonc3C(O)C3CC3)C3CCC(F)(F)CC3)nc2c1)C1CC1 (single isomer, unassigned) [Example 402, N—((S)-(7-((R)-Cyclopropyl(2-(3,3-difluorocyclobutyl)acetamido)methyl)imidazo[1,2-b]pyridazin-2-yl)(4,4-difluorocyclohexyl)methyl)-4-((S*)-cyclopropyl(hydroxy)methyl)-1,2,5-oxadiazole-3-carboxamide]	6.96	6.96	–
CC(C)(O)Cc1nonc1C(=O)N[C@H](c1cn2ncc([C@H](NC(=O)CC3CC(F)(F)C3)C3CC3)cc2n1)C1CCC(F)(F)CC1 [Example 394, N—((S)-(7-((R)-Cyclopropyl(2-(3,3-difluorocyclobutyl)acetamido)methyl)imidazo[1,2-b]pyridazin-2-yl)(4,4-difluorocyclohexyl)methyl)-4-(2-hydroxy-2-methylpropyl)-1,2,5-oxadiazole-3-carboxamide]	6.70	–	6.62
CCC(CC(=O)N[C@@H](c1cnn2cc([C@@H](NC(=O)c3nonc3C)C3CCC(F)(F)CC3)nc2c1)C1CC1)CC(F)(F)F (single isomer, unassigned) [Example 342, N—((S)-(7-((R)-Cyclopropyl((R*)-3-ethyl-5,5,5-trifluoropentanamido)methyl)imidazo[1,2-b]pyridazin-2-yl)(4,4-difluorocyclohexyl)methyl)-4-methyl-1,2,5-oxadiazole-3-carboxamide]	6.47	5.85	–
CC(C)n1nccc1C(=O)N[C@H](c1cn2ncc([C@H](NC(=O)CO[C@H](C)C(F)(F)F)C3CC3)cc2n1)C1CCC(F)(F)CC1 (single isomer, unassigned) [Example 311]	6.68	–	6.48
N#CC1(C(NC(=O)C(F)(F)CC2CC2)c2cnn3cc([C@@H](NC(=O)c4nonc4C4CC4)C4CCC(F)(F)CC4)nc3c2)CC1 (single isomer, unassigned) [Example 436, N—((S)-(7-((R*)-(1-Cyanocyclopropyl)(3-cyclopropyl-2,2-difluoropropanamido)methyl)imidazo[1,2-b]pyridazin-2-yl)(4,4-difluorocyclohexyl)methyl)-4-cyclopropyl-1,2,5-oxadiazole-3-carboxamide]	5.89	–	< 4.70
Cc1nonc1C(=O)N[C@H](c1cn2ncc([C@H](NC(=O)C(F)C3CC3)C3CC3)cc2n1)C1CCC(F)(F)CC1 (single isomer, unassigned) [Example 332, N—((S)-(7-((R)-Cyclopropyl((S*)-2-cyclopropyl-2-fluoroacetamido)methyl)imidazo[1,2-b]pyridazin-2-yl)(4,4-difluorocyclohexyl)methyl)-4-methyl-1,2,5-oxadiazole-3-carboxamide]	5.82	4.92	–
CC(C)n1nccc1C(=O)N[C@H](c1cn2ncc([C@H](NC(=O)CC(C)(C)C(F)F)C3CC3)cc2n1)C1CCC(F)(F)CC1 [Example 313, N—((S)-(7-((R)-Cyclopropyl(4,4-difluoro-3,3-dimethylbutanamido)methyl)imidazo[1,2-b]pyridazin-2-yl)(4,4-difluorocyclohexyl)methyl)-1-isopropyl-1H-pyrazole-5-carboxamide]	6.80	–	6.32
Cc1nonc1C(=O)N[C@H](c1cn2ncc(C(CC#N)NC(=O)CC3CC(F)(F)C3)cc2n1)C1CCC(F)(F)CC1 (single isomer, unassigned) [Example 397, N—((S)-(7-((S*)-2-Cyano-1-(2-(3,3-difluorocyclobutyl)acetamido)ethyl)imidazo[1,2-b]pyridazin-2-yl)(4,4-difluorocyclohexyl)methyl)-4-methyl-1,2,5-oxadiazole-3-carboxamide]	6.92	6.22	–
CC(C)C(NC(=O)CC1CC(F)(F)C1)c1cnn2cc([C@@H](NC(=O)c3nonc3OCC(F)F)C3CCC(F)(F)CC3)nc2c1 (stereo in doubt) [Example 514, N—((S)-(7-((S*)-1-(2-(3,3-Difluorocyclobutyl)acetamido)-2-methylpropyl)imidazo[1,2-b]pyridazin-2-yl)(4,4-difluorocyclohexyl)methyl)-4-(2,2-difluoroethoxy)-1,2,5-oxadiazole-3-carboxamide]	7.06	–	7.38
CC(C)(C)[C@@H](O)C(=O)NC(c1cnn2cc([C@@H](NC(=O)c3cnn(CC4CC4)n3)C3CCC(F)(F)CC3)nc2c1)C1CC1 (single isomer, unassigned) [Example 29, N—((S)-(7-((R*)-Cyclopropyl((R)-2-hydroxy-3,3-dimethylbutanamido)methyl)imidazo[1,2-b]pyridazin-2-yl)(4,4-difluorocyclohexyl)methyl)-2-(cyclopropylmethyl)-2H-1,2,3-triazole-4-carboxamide]	7.34	–	6.43
CC(C)n1nccc1C(=O)N[C@H](c1cn2ncc([C@H](NC(=O)CC3(C(F)(F)F)CC3)C3CC3)cc2n1)C1CCC(F)(F)CC1 [Example 244, N—((S)-(7-((R)-Cyclopropyl(2-(1-(trifluoromethyl)cyclopropyl)acetamido)methyl)imidazo[1,2-b]pyridazin-2-yl)(4,4-difluorocyclohexyl)methyl)-1-isopropyl-1H-pyrazole-5-carboxamide]	6.85	–	6.92
O=C(CC1(C(F)(F)F)CC1)N[C@@H](c1cnn2cc([C@@H](NC(=O)c3nonc3C3CC3)C3CCC(F)(F)CC3)nc2c1)C1CC1 [Example 297, 4-Cyclopropyl-N—((S)-(7-((R)-cyclopropyl(2-(1-(trifluoromethyl)cyclopropyl)acetamido)methyl)imidazo[1,2-b]pyridazin-2-yl)(4,4-difluorocyclohexyl)methyl)-1,2,5-oxadiazole-3-carboxamide]	7.51	–	7.06
